The test system of one experiment is Caenorhabditis elegans. The experiment in a line: C. elegans development assay (Ce DA). To be noted: 48 h, read-out: EC90 (motility reduction).
The test system of the next experiment is H. contortus larvae. The experiment in a line: H. contortus Larval Development Assay (Hc LDA). To be noted: Haemonchus contortus, read-out: EC50 (motility inhibition).
For the next experiment, the system named is D. immitis microfilariae. Kind of experiment: Dog heart worm microfilariae motility assay. To be noted: Dirofilaria immitis, read-out: EC50 (motility inhibition). The experiment is classed as cell-based.

One may read the EC90 as the concentration at which the effect reaches the 90% level. A word on the EC50: it is the concentration needed to bring the measured effect to its halfway point.

SMILES strings stand for the structures.

Procedure for Caenorhabditis elegans: Caenorhabditis elegans (Ce): C. elegans development assay (Ce DA) measures the effect of compounds on developing nematodes. Eggs of C. elegans are deposited in a 384 well plate together with food (E. coli) and the treatment formulated in DMSO. Plates are incubated at 25° C. for 48 h to allow the development of nematodes up to the L4-stage. The effect of compounds is measured as motility reduction. Efficacy is expressed in % motility reduction compared to negative controls.
Procedure for H. contortus larvae: Ruminant Gastrointestinal (H. contortus Larval Development Assay (Hc LDA)):
H.c. eggs isolated from lamb fecal matter are allowed to hatch overnight. Test compounds are diluted in DMSO and added to a 96-well plate containing appropriate media. H.c. larvae are added to each well and plates are incubated for the desired time(s). Motility is assessed using an LCD camera imaging system. Percent motility inhibition values are generated relative to the average of the DMSO-only wells.

Regarding `O=C(NN1CCOc2ccccc21)c1cnc2c(-c3cc(Cl)c(F)c(Cl)c3F)cccc2c1N1CCOCC1` [Example 5.23, 8-(3,5-dichloro-2,4-difluoro-phenyl)-N-(2,3-dihydro-1,4-benzoxazin-4-yl)-4-morpholino-quinoline-3-carboxamide], in the experiment on Caenorhabditis elegans, the EC90 was less than 1 µg/mL. For the same compound, the 50% effective concentration (EC50) is less than 1 µg/mL with H. contortus larvae and less than 0.1 µg/mL in the experiment on D. immitis microfilariae.

As for `CON(C)c1c(C(=O)NN2CCOc3ccccc32)cnc2c(-c3cc(Cl)c(F)c(Cl)c3F)c(F)ccc12` [Example 5.62, 8-(3,5-dichloro-2,4-difluoro-phenyl)-N-(2,3-dihydro-1,4-benzoxazin-4-yl)-7-fluoro-4-[methoxy(methyl)amino]quinoline-3-carboxamide], the EC90 in the experiment with Caenorhabditis elegans was less than 1 µg/mL.

Consider `O=C(NN1CCOc2ccccc21)c1cnc2c(-c3ccc(C(F)(F)F)cc3)cccc2c1N1CCOCC1` [Example 5.63, N-(2,3-dihydro-1,4-benzoxazin-4-yl)-4-morpholino-8-[4-(trifluoromethyl)phenyl]quinoline-3-carboxamide], for which the EC90 in the experiment on Caenorhabditis elegans is less than 1 µg/mL.
